Common to all, as to assay type: biochemical
Assay [1] concerns the target T1, CPT II WT (Homo sapiens, UniProt P23786).
T1 construct: made in house; host or cells: Escherichia coli BL21Gold DE
T1 sequence (P23786 26-658): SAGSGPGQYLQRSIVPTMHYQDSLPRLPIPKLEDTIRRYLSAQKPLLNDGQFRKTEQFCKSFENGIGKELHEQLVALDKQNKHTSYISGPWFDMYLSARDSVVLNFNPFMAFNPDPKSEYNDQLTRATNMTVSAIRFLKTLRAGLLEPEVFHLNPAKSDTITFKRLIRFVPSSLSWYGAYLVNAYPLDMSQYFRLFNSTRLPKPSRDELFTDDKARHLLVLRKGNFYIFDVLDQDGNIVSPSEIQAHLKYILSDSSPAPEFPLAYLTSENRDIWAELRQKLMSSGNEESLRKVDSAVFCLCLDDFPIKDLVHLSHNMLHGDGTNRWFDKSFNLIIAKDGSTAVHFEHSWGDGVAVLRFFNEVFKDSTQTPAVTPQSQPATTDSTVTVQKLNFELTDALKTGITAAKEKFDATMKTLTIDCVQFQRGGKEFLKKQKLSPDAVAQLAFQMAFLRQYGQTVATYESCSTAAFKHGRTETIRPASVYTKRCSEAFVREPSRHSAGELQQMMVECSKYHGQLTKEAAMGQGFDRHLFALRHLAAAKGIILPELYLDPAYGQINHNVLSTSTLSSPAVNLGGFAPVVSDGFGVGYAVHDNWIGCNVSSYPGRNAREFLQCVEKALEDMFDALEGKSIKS
Put plainly: Determination of the kinetic parameters kcat and KM. As to conditions: palmitoyl-CoA varied, 25 °C. How it is done:
(§1) Before activity measurements, the storage buffer of the enzymes was replaced with assay buffer (50 mM KH2PO4, 120 mM KCl, 1 mM EDTA-Na4) using vivaspin turbo 4 tubes (Satorius Stedim biotech GmbH, Göttingen, Germany) at 4 °C. The pH of assay buffer was adjusted with KOH to 7.4. The storage buffer was diluted at least 1:500 in assay buffer. In addition, before each experimental set up, the protein samples were centrifuged at 16,000× g for 5 min at 4 °C to remove any micro-aggregates. After that, the protein concentration was determined using bicinchoninic acid (BCA) protein assay kit (Thermo Fisher Scientific GmbH, Berlin, Germany). The enzyme activity of recombinant CPT II was performed following Rufer et al. with modifications described elsewhere. […] After pre-conditioning the mixture to 25 °C for 2 min, the reaction was started by adding 15 nM of recombinant enzyme. The reverse reaction of CPT II was detected with the enzyme activity assay. CPT II catalyzed the transfer of fatty acid residue from Pal-CoA to L-carnitine with release of CoA and Pal-carnitine. The released CoA was then detected by the reaction of the free thiol group with DTNB, forming 5-mercapto-(2-nitrobenzoic acid). This compound has a molar extinction coefficient of 13,600 M^−1 cm^−1 at a wavelength of 410 nm, and its formation was followed spectroscopically. […] The slope of the progress curve was used to determine the reaction velocity.
(§2) It is assumed that the reaction catalyzed by CPT II represents a ping-pong mechanism or compulsory order ternary-complex mechanism.
(§3) The kinetic parameters were determined by evaluating the obtained v/S characteristic according to the Michaelis–Menten Equation (1). The […] kcat was calculated using Equation (2):(1) v=Vmax∗[S]/KM+[S] (2) kcat=Vmax/cenzyme

For assay [2], the target named is T2, CPT II variant P50H (Homo sapiens, UniProt P23786, P50H).
T2 construct: made in house; host or cells: Escherichia coli BL21Gold DE
T2 sequence (P23786 26-658 P50H): T1 sequence (P23786 26-658) with P25H
The assay is described as above. As to conditions: palmitoyl-CoA varied, 25 °C. The protocol: as §1, §2, §3

The target of assay [3] is T3, CPT II variant S113L (Homo sapiens, UniProt P23786, S113L).
T3 construct: made in house; host or cells: Escherichia coli BL21Gold DE
T3 sequence (P23786 26-658 S113L): T1 sequence (P23786 26-658) with S88L
The description is as above. The conditions noted are these: palmitoyl-CoA varied, 25 °C. The protocol:
as §1, §2, §3

The target of assay [4] is T4, CPT II variant Y479F (Homo sapiens, UniProt P23786, Y479F).
T4 construct: made in house; host or cells: Escherichia coli BL21Gold DE
T4 sequence (P23786 26-658 Y479F): T1 sequence (P23786 26-658) with Y454F
The assay is described as above. The conditions noted are these: palmitoyl-CoA varied, 25 °C. How it is done:
as §1, §2, §3

The target of assay [5] is T1, CPT II WT. Nature of the assay: Determination of inhibition constant Ki for R-amino carnitine (DTNB enzyme activity assay). The conditions noted are these: 25 °C. The protocol:
as §1
(§4) The inhibition constant Ki for the competitive inhibitor R-amino carnitine was determined using various concentrations (R-AC, 0, 0.25 and 0.5 mM). A concentration series of L-carnitine in the enzyme assay was used (0–200 mM) while the concentration of Pal-CoA remained constant at 30 µM. Experiments were performed at least three times independently as double determination.
(§5) The values for Ki were calculated on the basis of the obtained KM values, the Michaelis–Menten constant of the inhibited reaction KMi and the inhibitor concentration using the following equation [45]:(3) KMi=(1+[I]/ Ki)KM (4) Ki=KM·[I]/KMi−KM

Assay [6] addresses T2, CPT II variant P50H. The description is as above. As to conditions: 25 °C. How it is done:
as §1, §4, §5

Assay [7] addresses T3, CPT II variant S113L. The assay is described as above. The conditions noted are these: 25 °C. How it is done:
as §1, §4, §5

The target in assay [8] is T4, CPT II variant Y479F. The assay is described as above. The conditions noted are these: 25 °C. The protocol: as §1, §4, §5
Where [9] appears, read: 0.25 mM CL, read-out: Inhibition Constant Ki in Presence of CL.
[10] abbreviates: absence of CL, read-out: Inhibition Constant Ki in Absence of CL.

SMILES strings stand for the structures. Where a chain is given by its changes, count along the chain named. Where two headings read alike, the source gives them in different places.

These results are taken from article PMC8125234, “Cardiolipin Stabilizes and Increases Catalytic Efficiency of Carnitine Palmitoyltransferase II and Its Variants S113L, P50H, and Y479F” (International Journal of Molecular Sciences, 2021).

The term Km denotes the substrate concentration at which the rate is half of its maximum. One may read the kcat as the number of substrate molecules converted per active site and unit of time at saturation. What is called Ki is the equilibrium dissociation constant of an inhibitor or competing ligand from its target.

Take `CCCCCCCCCCCCCCCC(=O)SCCNC(=O)CCNC(=O)[C@H](O)C(C)(C)COP(=O)(O)OP(=O)(O)OC[C@H]1O[C@@H](n2cnc3c(N)ncnc32)[C@H](O)[C@@H]1OP(=O)(O)O` [palmitoyl-CoA, Palmitoyl-Coenzyme A]: the Km at CPT II WT [1] (0.25 mM CL) came to 6.7 ± 1.1 µM; at CPT II WT [1] (absence of CL), 7.1 ± 1.1 µM; at CPT II variant P50H [2] (0.25 mM CL), 6.7 ± 1.8 µM; on CPT II variant P50H [2] (absence of CL) it was 5.5 ± 1.4 µM; on CPT II variant S113L [3] (0.25 mM CL), 12.3 ± 3 µM; on CPT II variant S113L [3] (absence of CL) it was 11 ± 3.6 µM. Besides, the Michaelis-Menten constant (Km) was determined as 6.7 ± 0.3 µM at CPT II variant Y479F [4] (0.25 mM CL) and 5.1 ± 2.3 µM at CPT II variant Y479F [4] (absence of CL). For the same compound, the kcat at CPT II WT [1] (0.25 mM CL) stood at 145.3 ± 9.0 s⁻¹; at CPT II WT [1] (absence of CL), 144.7 ± 3.1 s⁻¹; at CPT II variant P50H [2] (0.25 mM CL) it was 138.2 ± 8.4 s⁻¹; at CPT II variant P50H [2] (absence of CL) it was 144.3 ± 18 s⁻¹; on CPT II variant S113L [3] (0.25 mM CL), 145.8 ± 0.9 s⁻¹; at CPT II variant S113L [3] (absence of CL), 142.1 ± 25 s⁻¹. Moreover, the catalytic constant (kcat) on CPT II variant Y479F [4] (0.25 mM CL) was determined as 144.8 ± 13 s⁻¹; at CPT II variant Y479F [4] (absence of CL), 141.4 ± 1.7 s⁻¹.

For `C[N+](C)(C)C[C@H](N)CC(=O)[O-]` [R-amino carnitine, R-Aminocarnitine], the Ki came to 105 ± 2 µM at CPT II WT [5] (setting [9]); 493 ± 4 µM on CPT II WT [5] (setting [10]); 46 ± 6 µM at CPT II variant P50H [6] (setting [9]); 134 ± 11 µM at CPT II variant P50H [6] (setting [10]); 36 ± 16 µM on CPT II variant S113L [7] (setting [9]); 173 ± 20 µM on CPT II variant S113L [7] (setting [10]). Further, the results for the inhibitory constant (Ki) at CPT II variant Y479F [8] (setting [9]) and at CPT II variant Y479F [8] (setting [10]) were 108 ± 39 µM and 756 ± 62 µM, respectively.
